“And” between values parts separate entries of the source, which are not always exact repeats. Equal entries are not always repeated.
Test system: SUM149PT spheroids with HUVEC/MSC, viability
Assay: Anticancer human tumor SUM149PT cell line growth inhibition [GQUAD];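 note: spheroids exposed to drugs for seven days before readout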;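 for viability, T/C: percent viability relative to DMSO vehicle control taken as 100%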
Conditions: for viability, T/C: stronger effect = lower value
Excerpt: DNA G-quadruplex Stabilizer Agents in Combinations in Complex Spheroids
A high-throughput screen of multi-cell type tumor spheroids was designed to identify active combinations of DNA G-quadruplex stabilizer agents and targeted small molecules. Complex spheroids include a stromal component modeled by human endothelial cells (HUVEC) and fibroblasts modeled by human mesenchymal stem cells (MSCs). The concentration ranges selected for each drug and investigational agent were based upon clinically achievable concentrations if the clinical Cmax of the agent was known.
Compounds. The drugs and investigational agents: pidnarulex (CX-5461; NSC782164), APTO-253 (NSC789042), BRACO-19 (NSC847499), peposertib (NSC802822), ceralasertib (NSC780249), elimusertib (NSC800525), camonsertib (NSC841442), AZD-1390 (NSC803789), olaparib (NSC753686), talazoparib (NSC767125), ART-558 (NSC835418), sotorasib (NSC818433), MRTX-1133 (NSC836407), SN-38 (NSC673596), topotecan (NSC609699), etoposide (NSC141540), doxorubicin (NSC123127), gemcitabine (NSC613327), 5-fluorouracil (NSC19893), paclitaxel (NSC125973), vemurafenib (NSC761431), panobinostat (NSC761190), R-306465 (JNJ-16241199; NSC773264), adavosertib (NSC754352), TP-3654 (NSC805149), carboplatin (NSC241240), KSQ-4279 (NSC840948), and staurosporine (NSC755774) were obtained from the National Cancer Institute (NCI) Developmental Therapeutics Program Chemical Repository (34). The FDA-approved anticancer drug set is available from the NCI Developmental Therapeutics Program. […] The stock solutions were prepared in dimethyl sulfoxide (DMSO, Sigma-Aldrich, St. Louis, MO, cat. D2650) at 800-fold the tested concentration and stored at -70 degrees C prior to their use. All drugs and investigational agents were tested over a range starting from a high concentration at or near the clinical Cmax and decreasing in half-log increments. If the clinical Cmax for an agent had not been determined, the highest concentration tested was 10 microM.
2.3 Cell Culture. All cells were maintained in an incubator at 37 degrees C and 5% CO2 with 95% humidity. The PDC lines were cultured according to standard operating procedures established by the NCI PDMR. All PDCs were thawed and cultured in Matrigel-coated flasks prepared with a working solution of 1X Ham's F-12 nutrient mix, without supplementation (Invitrogen, cat. 11765054), 100 U/mL penicillin-streptomycin (Invitrogen, cat. 15140122), and 2.5% Matrigel (Corning Inc., cat. 354248) for the first three passages. The 857933-349-R-J2-PDC line was cultured in 6C/Colon 1B media, which includes advanced DMEM/F-12 (Thermo Fisher Scientific, cat. 12634028), 10 mM HEPES (Thermo Fisher Scientific, cat. 15630080), 1X GlutaMAX supplement (Thermo Fisher Scientific, cat. 35050061), 0.1 mg/mL primocin (InvivoGen, cat. ant-pm-2), 10% defined fetal bovine serum, heat inactivated (HyClone Laboratories Inc., cat. SH30070.03HI), 50% L-WRN conditioned media (ATCC, cat. CRL-3276), 1.25 mM N-Acetyl-L-cysteine (Sigma-Aldrich, cat. A9165), 10 mM nicotinamide (Sigma-Aldrich, cat. N0636), 1X B-27 supplement (Thermo Fisher Scientific, cat. 17504044), 1X N-2 supplement (Thermo Fisher Scientific, cat. 17502048), 10 microM Y-27632 dihydrochloride (Tocris Bioscience, cat. 1254), and 50 ng/mL human EGF recombinant protein (Thermo Fisher Scientific, cat. PHG0311). The 485176-168-R4-J1-PDC line was cultured in Panc media, which includes all 6C/Colon 1B media components plus 100 ng/mL human FGF-10 (Thermo Fisher Scientific, cat. 100-26), 500 nM SB-431542 (Selleckchem, cat. S1067), and gastrin (Tocris, cat. 3006).
[…]

Row | SMILES | viability, T/C (compound 0.0316 µM) | viability, T/C (compound 0.1 µM) | viability, T/C (compound 0.316 µM) | viability, T/C (compound 1 µM) | viability, T/C (compound 3.16 µM) | viability, T/C (compound 10 µM) | IC50 (curve of compound) | IC50 (compound alone, run of 03/18/2024) [nM] | IC50 (compound alone, run of 03/26/2024) [nM]
1 | C#Cc1c(F)ccc2cc(O)cc(-c3ncc4c(N5CC6CCC(C5)N6)nc(OCC56CCCN5CC(F)C6)nc4c3F)c12 (stereo not drawn) | 92.8% and 104% and 99.7% | 74.4% and 90.1% and 92.7% | 58.9% and 82.1% and 77.1% | 40.6% and 62.5% and 67.6% | 37.8% and 70.5% and 53.1% | 30.2% and 42.8% and 41.5% |  |  | 
2 | C=CCn1c(=O)c2cnc(Nc3ccc(N4CCN(C)CC4)cc3)nc2n1-c1cccc(C(C)(C)O)n1 | 98.3% and 95.2% and 87.7% | 73% and 67% and 53.4% | 32% and 32.6% and 26.9% | 20.9% and 19.1% and 16.4% | 12.8% and 11.1% and 8.08% | 8.94% and 7.14% and 6.33% | 196 nM and 180 nM and 115 nM |  | 
3 | CC(=O)O[C@H]1C(=O)[C@@]2(C)[C@H]([C@H](OC(=O)c3ccccc3)[C@]3(O)C[C@H](OC(=O)[C@H](O)[C@@H](NC(=O)c4ccccc4)c4ccccc4)C(C)=C1C3(C)C)[C@]1(OC(C)=O)CO[C@@H]1C[C@@H]2O | 29.9% and 31.4% and 22.4% | 25.7% and 26.3% and 18.2% | 25.7% and 20.8% and 15.6% | 22.3% and 19.5% and 11.7% | 22.6% and 20.4% and 11% | 26.4% and 22.7% and 16.2% | < 31.6 nM |  | 
4 | CC(C)(O)C1CCC(Nc2ccc3ncc(-c4cccc(C(F)(F)F)c4)n3n2)CC1 (stereo not drawn) | 98.3% and 102% and 86% | 86.1% and 89.2% and 65.1% | 76.1% and 82.5% and 72.4% | 63.5% and 63.8% and 49.3% | 47.9% and 49% and 37.8% | 61.8% and 58% and 41.8% | > 10000 nM and 1170 nM |  | 
5 | CCCS(=O)(=O)Nc1ccc(F)c(C(=O)c2c[nH]c3ncc(-c4ccc(Cl)cc4)cc23)c1F | 107% and 95.3% and 95.8% | 101% and 100% and 102% | 101% and 97.4% and 107% | 97.1% and 102% and 107% | 76% and 70.9% and 76.2% | 54.1% and 46.8% and 37.6% | > 10000 nM and 8570 nM and 6910 nM |  | 
6 | COc1ncnc(C2CC2)c1-c1ncc2cnn(Cc3ccc(-c4nc(C(F)(F)F)cn4C(C)C)cc3)c2n1 | 97.5% and 104% and 97.6% | 74.3% and 85.3% and 87.7% | 88.8% and 90.9% and 90.6% | 76% and 81.9% and 80.4% | 89.2% and 95.1% and 95.5% | 95.5% and 94.5% and 101% | > 10000 nM |  | 
7 | Cc1[nH]c2ccc(F)cc2c1-c1nc2c3cccnc3c3ncccc3c2[nH]1 |  | 102% [middle of 12 runs] | 104% [middle of 12 runs] | 99% [middle of 12 runs] |  | 98.4% [middle of 12 runs] |  | > 10000 | > 10000
8 | Nc1ccn(C2OC(CO)C(O)C2(F)F)c(=O)n1 (stereo not drawn) | 74.9% and 85.4% and 74.1% | 37.6% and 48.4% and 42% | 24.5% and 38.1% and 20.7% | 23.8% and 31.2% and 18.5% | 16.5% (2×) and 24.5% | 15.4% and 24.8% and 17% | 69.3 nM and 108 nM and 75.1 nM |  | 
9 | O=C(NO)c1cnc(N2CCN(S(=O)(=O)c3ccc4ccccc4c3)CC2)nc1 | 97.1% and 108% and 102% | 86.9% and 95.1% and 86.5% | 48.5% (2×) and 56.6% | 0.52% and 2.34% and 1.78% | 0.32% and 0.27% and 0.08% | 0.29% and 0.71% | 295 nM and 355 nM and 286 nM |  | 
10 | O=c1[nH]cc(F)c(=O)[nH]1 | 103% and 95.7% and 106% | 93.6% and 90.8% and 93.9% | 108% and 110% and 101% | 102% and 107% and 96% | 56.9% and 55.7% and 61.6% | 51.6% and 43.3% and 50.6% | > 10000 nM and 5360 nM |  | 

From PubChem BioAssay AID2060484 (Molecular Pharmacology Branch, DTP, NCI, 2025)
